The record followed here is patent publication US20100204265A1 (priority 2009, published 2010).

For orientation: EC50 means the concentration giving half of the maximal effect. The low end stands for an effect from little substance, the high end for a need for much substance.

For this experiment, the system named is ET (Huh-lucubineo-ET) cell line harboring I389luc-ubi-neo/NS3-3′/ET HCV replicon. As to the kind of experiment: Replicon assay (HCV replicon, luciferase readout). In kind it is cell-based. The note with it: Hepatitis C virus. A digest of the protocol:
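Compounds at 10-point 2-fold dilutions (overall 0.1 nM to […], 0.5% DMSO) were applied to ET cells carrying a luciferase-neo HCV replicon, seeded a day earlier. After 48-72 hours, luciferase-based % inhibition was fitted with a Hill equation for EC50, and parallel WST-1 readings gave TC50.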
For orientation: Replicon systems follow genome replication, usually without infectious particles.
`O=C(c1nc2c(C(F)(F)F)cc(-c3ccoc3)cn2c1Cl)N1CC=C(c2ncccc2O)CC1` [Compound 201, (3-Chloro-6-furan-3-yl-8-trifluoromethyl-imidazo[1,2-a]pyridin-2-yl)-(3-hydroxy-3′,6′-dihydro-2′H-[2,4′]bipyridinyl-1′-yl)-methanone] registered an EC50 of 15300 nM.

For the compound `O=C(c1nc2c(C(F)(F)F)cc(-c3ccoc3)cn2c1Cl)N1CC=C(c2ncccc2Cl)CC1` [Compound 202, (3-Chloro-3′,6′-dihydro-2′H-[2,4′]bipyridinyl-1′-yl)-(3-chloro-6-furan-3-yl-8-trifluoromethyl-imidazo[1,2-a]pyridin-2-yl)-methanone], the response was half-maximal at 329 nM (EC50).

`O=C(c1nc2c(C(F)(F)F)cc(-c3ccoc3)cn2c1Cl)N1CC=C(c2cncc(F)c2)CC1` [Compound 203, (3-Chloro-6-furan-3-yl-8-trifluoromethyl-imidazo[1,2-a]pyridin-2-yl)-(5-fluoro-3′,6′-dihydro-2′H-[3,4′]bipyridinyl-1′-yl)-methanone] registered a 50% effective concentration (EC50) of 974 nM.

`O=C(c1nc2c(C(F)(F)F)cc(-c3ccoc3)cn2c1Cl)N1CC=C(c2cccc(F)n2)CC1` [Compound 204, (3-Chloro-6-furan-3-yl-8-trifluoromethyl-imidazo[1,2-a]pyridin-2-yl)-(6-fluoro-3′,6′-dihydro-2′H-[2,4′]bipyridinyl-1′-yl)-methanone] registered a concentration for a half-maximal effect (EC50) of 3710 nM.

With `O=C(c1nc2c(C(F)(F)F)cc(-c3ccoc3)cn2c1Cl)N1CC=C(c2ncccc2C(F)(F)F)CC1` [Compound 205, (3-Chloro-6-furan-3-yl-8-trifluoromethyl-imidazo[1,2-a]pyridin-2-yl)-(3-trifluoromethyl-3′,6′-dihydro-2′H-[2,4′]bipyridinyl-1′-yl)-methanone], the response was half-maximal at 18000 nM (EC50).

`Cc1ccnc(C2=CCN(C(=O)c3nc4c(C(F)(F)F)cc(-c5ccoc5)cn4c3Cl)CC2)c1F` [Compound 206, (3-Chloro-6-furan-3-yl-8-trifluoromethyl-imidazo[1,2-a]pyridin-2-yl)-(3-fluoro-4-methyl-3′,6′-dihydro-2′H-[2,4′]bipyridinyl-1′-yl)-methanone] yielded an EC50 of 5950 nM.

The compound `Cc1ccc(F)c(C2=CCN(C(=O)c3nc4c(C(F)(F)F)cc(-c5ccoc5)cn4c3Cl)CC2)n1` [Compound 207, (3-Chloro-6-furan-3-yl-8-trifluoromethyl-imidazo[1,2-a]pyridin-2-yl)-(3-fluoro-6-methyl-3′,6′-dihydro-2′H-[2,4′]bipyridinyl-1′-yl)-methanone] yielded a concentration for a half-maximal effect (EC50) of 17900 nM.

In turn, `O=C(c1nc2c(C(F)(F)F)cc(-c3ccoc3)cn2c1Cl)N1CC=C(c2ncncc2F)CC1` [Compound 208, (3-Chloro-6-furan-3-yl-8-trifluoromethyl-imidazo[1,2-a]pyridin-2-yl)-[4-(5-fluoro-pyrimidin-4-yl)-3,6-dihydro-2H-pyridin-1-yl]-methanone] displayed an EC50 of 312 nM.

Take `O=C(c1nc2c(C(F)(F)F)cc(-c3ccoc3)cn2c1Cl)N1CC=C(c2cc(F)ccn2)CC1` [Compound 209, (3-Chloro-6-furan-3-yl-8-trifluoromethyl-imidazo[1,2-a]pyridin-2-yl)-(4-fluoro-3′,6′-dihydro-2′H-[2,4′]bipyridinyl-1′-yl)-methanone]: the EC50 stood at 399 nM.

As to `O=C(c1nc2c(C(F)(F)F)cc(-c3ccoc3)cn2c1Cl)N1CC=C(c2ccccn2)CC1` [Compound 210, (3-Chloro-6-furan-3-yl-8-trifluoromethyl-imidazo[1,2-a]pyridin-2-yl)-(3′,6′-dihydro-2′H-[2,4′]bipyridinyl-1′-yl)-methanone], the response was half-maximal at 481 nM (EC50).

Take `N#Cc1cccnc1C1=CCN(C(=O)c2nc3c(C(F)(F)F)cc(-c4ccoc4)cn3c2Cl)CC1` [Compound 211, 1′-(3-Chloro-6-furan-3-yl-8-trifluoromethyl-imidazo[1,2-a]pyridine-2-carbonyl)-1′,2′,3′,6′-tetrahydro-[2,4′]bipyridinyl-3-carbonitrile]: the EC50 amounted to 1480 nM.

For the compound `O=C(c1nc2c(C(F)(F)F)cc(-c3ccoc3)cn2c1Cl)N1CC=C(/C=C/C2CC2)CC1` [Compound 212, (3-Chloro-6-furan-3-yl-8-trifluoromethyl-imidazo[1,2-a]pyridin-2-yl)-[4-(2-cyclopropyl-vinyl)-3,6-dihydro-2H-pyridin-1-yl]-methanone], a half-maximal effect (EC50) was put at 338 nM.

With `O=C(c1nc2c(C(F)(F)F)cc(-c3ccoc3)cn2c1Cl)N1CC=C(C2=CCNC2)CC1` [Compound 213, (3-Chloro-6-furan-3-yl-8-trifluoromethyl-imidazo[1,2-a]pyridin-2-yl)-[4-(2,5-dihydro-1H-pyrrol-3-yl)-3,6-dihydro-2H-pyridin-1-yl]-methanone], the concentration giving a half-maximal response (EC50) amounted to 942 nM.

Turning to `O=C(c1nc2c(C(F)(F)F)cc(-c3ccccc3)cn2c1Cl)N1CC=C(c2nccs2)C1` [Compound 215, (3-Chloro-6-phenyl-8-trifluoromethyl-imidazo[1,2-a]pyridin-2-yl)-(3-thiazol-2-yl-2,5-dihydro-pyrrol-1-yl)-methanone], the half-maximal effective concentration (EC50) turned out to be 32.2 nM.

Regarding `O=C(c1nc2c(C(F)(F)F)cc(-c3cccnc3)cn2c1Cl)N1CC=C(c2nccs2)C1` [Compound 216, (3-Chloro-6-pyridin-3-yl-8-trifluoromethyl-imidazo[1,2-a]pyridin-2-yl)-(3-thiazol-2-yl-2,5-dihydro-pyrrol-1-yl)-methanone], the concentration for a half-maximal effect (EC50) came to 111 nM.

`O=C(c1nc2c(C(F)(F)F)cc(C3=CCCCC3)cn2c1Cl)N1CC=C(c2nccs2)C1` [Compound 217, (3-Chloro-6-cyclohex-1-enyl-8-trifluoromethyl-imidazo[1,2-a]pyridin-2-yl)-(3-thiazol-2-yl-2,5-dihydro-pyrrol-1-yl)-methanone]: a half-maximal response (EC50) required 50.5 nM.

`O=C(c1nc2c(C(F)(F)F)cc(C3=CCNCC3)cn2c1Cl)N1CC=C(c2nccs2)C1` [Compound 218, [3-Chloro-6-(1,2,3,6-tetrahydro-pyridin-4-yl)-8-trifluoromethyl-imidazo[1,2-a]pyridin-2-yl]-(3-thiazol-2-yl-2,5-dihydro-pyrrol-1-yl)-methanone] came in with an EC50 of 2000 nM.

`O=C(c1nc2c(C(F)(F)F)cc(-c3ccoc3)cn2c1Cl)N1CCC(c2ncccc2F)CC1` [Compound 219, (3-Chloro-6-furan-3-yl-8-trifluoromethyl-imidazo[1,2-a]pyridin-2-yl)-(3-fluoro-3′,4′,5′,6′-tetrahydro-2′H-[2,4′]bipyridinyl-1′-yl)-methanone] gave an EC50 of 65.1 nM.

As for `N#CC1(c2ncccc2F)CCN(C(=O)c2nc3c(C(F)(F)F)cc(-c4ccoc4)cn3c2Cl)CC1` [Compound 220, 1′-(3-Chloro-6-furan-3-yl-8-trifluoromethyl-imidazo[1,2-a]pyridine-2-carbonyl)-3-fluoro-2′,3′,5′,6′-tetrahydro-1′H-[2,4′]bipyridinyl-4′-carbonitrile], a half-maximal response (EC50) required 777 nM.

With `N#CC1(c2cccs2)CCN(C(=O)c2nc3c(C(F)(F)F)cc(-c4ccoc4)cn3c2Cl)CC1` [Compound 221, 1-(3-Chloro-6-furan-3-yl-8-trifluoromethyl-imidazo[1,2-a]pyridine-2-carbonyl)-4-thiophen-2-yl-piperidine-4-carbonitrile], a half-maximal response (EC50) required 45.5 nM.

On to `O=C(c1nc2c(C(F)(F)F)cc(-c3ccoc3)cn2c1Cl)N1CCC(O)(c2ncccc2F)CC1` [Compound 222, (3-Chloro-6-furan-3-yl-8-trifluoromethyl-imidazo[1,2-a]pyridin-2-yl)-(3-fluoro-4′-hydroxy-3′,4′,5′,6′-tetrahydro-2′H-[2,4′]bipyridinyl-1′-yl)-methanone], for which the response was half-maximal at 624 nM (EC50).

As for `O=C(c1nc2c(C(F)(F)F)cc(-c3ccoc3)cn2c1Cl)N1CCC(F)(c2ncccc2F)CC1` [Compound 223, (3-Chloro-6-furan-3-yl-8-trifluoromethyl-imidazo[1,2-a]pyridin-2-yl)-(3,4′-difluoro-3′,4′,5′,6′-tetrahydro-2′H-[2,4′]bipyridinyl-1′-yl)-methanone], the response was half-maximal at 657 nM (EC50).

`O=C(c1nc2c(C(F)(F)F)cc(-c3ccoc3)cn2c1Cl)N1CCC(O)(c2nccs2)CC1` [Compound 224, (3-Chloro-6-furan-3-yl-8-trifluoromethyl-imidazo[1,2-a]pyridin-2-yl)-(4-hydroxy-4-thiazol-2-yl-piperidin-1-yl)-methanone] showed a 50% effective concentration (EC50) of 3500 nM.

In the case of `CC(C)CCC1CCN(C(=O)c2nc3c(C(F)(F)F)cc(-c4ccoc4)cn3c2Cl)CC1` [Compound 225, (3-Chloro-6-furan-3-yl-8-trifluoromethyl-imidazo[1,2-a]pyridin-2-yl)-[4-(3-methyl-butyl)-piperidin-1-yl]-methanone], the EC50 was 2300 nM.

Take `O=C(NCc1cn2cc(-c3ccoc3)cc(C(F)(F)F)c2n1)C1CC1` [Compound 226, Cyclopropanecarboxylic acid (6-furan-3-yl-8-trifluoromethyl-imidazo[1,2-a]pyridin-2-ylmethyl)-amide]: the EC50 is over 50000 nM.

The compound `O=S(=O)(NCc1cn2cc(-c3ccoc3)cc(C(F)(F)F)c2n1)C1CC1` [Compound 227, Cyclopropanesulfonic acid (6-furan-3-yl-8-trifluoromethyl-imidazo[1,2-a]pyridin-2-ylmethyl)-amide] showed an EC50 of over 50000 nM.

In the case of `FC(F)(F)c1cc(-c2ccoc2)cn2cc(Cn3cnc(-c4ccccc4)c3)nc12` [Compound 228, 6-Furan-3-yl-2-(4-phenyl-imidazol-1-ylmethyl)-8-trifluoromethyl-imidazo[1,2-a]pyridine], the 50% effective concentration (EC50) is over 50000 nM.

The compound `FC(F)(F)c1cc(-c2ccoc2)cn2cc(Cc3nc(-c4ccccc4)no3)nc12` [Compound 229, 6-Furan-3-yl-2-(3-phenyl-[1,2,4,]oxadiazol-5-ylmethyl)-8-trifluoromethyl-imidazo[1,2-a]pyridine] displayed an EC50 of over 50000 nM.

For `FC(F)(F)c1cc(-c2ccoc2)cn2cc(Cc3nc(Cc4ccccc4)no3)nc12` [Compound 230, 2-(3-Benzyl-[1,2,4]oxadiazol-5-ylmethyl)-6-furan-3-yl-8-trifluoromethyl-imidazo[1,2-a]pyridine], the 50% effective concentration (EC50) is over 50000 nM.
